Measurements taken from US9381148B2, “Composition comprising particulate zinc material with a high relative zinc lability” (priority 2003, dated 2016).
Where two headings read alike, the source gives them in different places.

Legend:
[1] = From the text: Those materials with high potential to bind to the PZM surface are ZBM's that form only sparingly soluble salts with zinc in water. “Sparingly soluble” refers to zinc salts with 1 gram(g)/100 g water solubility or less. These are the materials that form precipitated surface species on the PZM that interfere with zinc lability. A summary of the solubilities of common zinc salts is shown below: […]
[2] = zinc salt of the counterion; reference A, selected literature data for 25–30° C.; cited from earlier work

Compound	Solubility (g/100 g water) ([1]; pH 7)	further results
Laurate		Solubility (g/100 g water) ([1]; zinc salt of the counterion, reference B, commercially sourced materials (Pfaltz & Bauer), water at pH 7 and room temperature, filtered, ICP): 0.012 g/100 g water
Phosphate	0.0013 g/100 g water	
O=C(O)c1ccccc1O [Salicylate]	0.29 g/100 g water	
[O-][Cl+3]([O-])([O-])O [Perchlorate]		Solubility (g/100 g water) [2]: 113.5 g/100 g water
